Experimental data published in US10363239B2, “Method for inhibiting growth of cancer cells” (Pain Therapeutics, Inc., priority 2013, dated 2019).

Columns and labels:
Assay type in all cases: cell-based, human
glioblastoma cells = experiment: Glucose deprivation-induced cell death (cell density); conditions: 0.1 or 1 nM; up to 4 days
Method: (§1) The effect of Compound C0105 on cell death induced by glucose withdrawal was assessed in glioblastoma and melanoma cells. Cells were grown to >90% confluence, washed and incubated in 0.1% fetal bovine serum (FBS) for 16 hours and incubated in glucose-free 0.1% FBS-containing medium without or with 0.1 or 1 nM C0105 for up to 4 days. Cell density was assessed at the indicated time point. Data are expressed as mean±S.E.M. of percentage change in cell density compared to cells grown in glucose- and 0.1% FBS-containing medium. […] N=5-6.
(§2) In a separate series of studies, the effect of Compound C0105 on glucose dependence was assessed by changes in cell density. The cancer and primary normal cells were grown to >90% confluency. The cells were washed with PBS, incubated in 0.1% fetal bovine serum (FBS) for 16 hours and incubated in glucose-free 0.1% FBS-containing medium for up to 4 days in the presence of vehicle or 1 nM Compound C0105.

melanoma cells [1] = experiment: as above; conditions: 0.1 or 1 nM; up to 4 days
Method: as §1, §2

[2] = tested on: small-cell lung carcinoma cells; experiment: Glucose deprivation-induced apoptosis markers (cleaved PARP-1, caspase-3) by Western blotting; conditions: 1 nM; Day 3 and 4
Method: . Cells were washed, solubilized and the levels of apoptotic markers PARP-1 and caspase-3 (19- and 17-KDa) in the obtained cell lysates were determined by Western blotting. The density of protein bands was quantified by densitometric scanning. […] . […] N=5. *p<0.01 compared to Day 0. #p<0.01 compared to vehicle (open bars).
. The cells were washed with PBS, incubated in 0.1% fetal bovine serum (FBS) for 16 hours and incubated in glucose-free 0.1% FBS-containing medium for up to 4 days in the presence of vehicle or 1 nM Compound C0105. The cells in the entire well were collected by centrifugation. […] The protein concentrations were measured by the Bradford method.
The cells were homogenized and the obtained homogenates were centrifuged to remove nucleus and mitochondria. […] The level of apoptotic cell death was determined using Western blotting in 50 μg solubilized cell lysates with antibodies against cleaved PARP-1 (Asp^214) and caspase-3 (Asp^175), both at 1:1000 dilution. […] Bands at the relevant molecular masses of Ki67 and PCNA were quantified by densitometric scan. Membranes were stripped, washed 5× in 0.1% PBST (2 minutes each wash) and the actin content analyzed by immunoblotting using monoclonal anti-actin to illustrate even loading.

melanoma cells [3] = experiment: [3H]thymidine incorporation; conditions: 0.1-5 nM; 96 hours
Method: (§3) The effect of Compound C0105 on cell proliferation was determined by the level of [^3H]thymidine incorporation in glioblastoma, melanoma and small-cell lung carcinoma cells. Cells contacted with vehicle or 0.1-5 nM Compound C0105 were incubated with 5 μCi/ml of [^3H]thymidine for 96-hours. Cells were washed and the cell content of [^3H]thymidine was quantified using scintillation spectrometry. […] N=4. **p<0.05, *p<0.01 compared to vehicle (open bars).

[4] = tested on: small-cell lung carcinoma cells; experiment: [3H]thymidine incorporation; conditions: 0.1-5 nM; 96 hours
Method: as §3

[5] = tested on: breast cancer HTB-22 cells; experiment: Cell proliferation by cell-cycling markers Ki67 and PCNA (Western blots); conditions: 0.1-5 nM; 4 days
Method: The effect of contact with Compound C0105 on cell proliferation was determined by the levels of cell-cycling markers: Ki67 and PCNA using Western blots in HTB-22 and control human mammary epithelial cells (HMECs). Cells treated with vehicle and 0.1-5 nM Compound C0105 for 4 days were collected, washed and solubilized. The resultant cell lysates were size-fractionated on SDS-PAGE and Western blotting to determine the levels of Ki67, PCNA and actin (loading control). The protein bands were quantified using densitometric scanning.
The effect of C0105 on cell proliferation was determined by the levels of cell-cycling markers Ki67 and PCNA using Western blots in HTB-22 and control HMECs. Cells contacted with vehicle and 0.1-5 nM Compound C0105 for 4 days were collected, washed and solubilized. […] The protein bands were quantified using densitometric scanning. […]
To study the effect of Compound C0105 on PI3K activity, the cancer and primary normal cells were cultured to approximately 60-70% confluency, serum deprived for 4 hours, briefly washed with PBS and treated with vehicle or 0.1, 0.5, 1 or 5 nM Compound C0105 for 24 hours with in 0.1% FBS-containing culture medium. […] The cell pellets were sonicated in ice-cold immunoprecipitation buffer and protein concentrations measured by the Bradford method. […]

CN1CCC2(CC1)NCC(=O)N2Cc1ccccc1 [Compound C0105]
Cell death during glucose withdrawal (glioblastoma cells): reduced the amount of cell death | Cell death during glucose withdrawal (melanoma cells [1]): reduced the amount of cell death | Glucose deprivation-induced cell death by cleaved PARP-1 and caspase-3 [2]: reduces glucose deprivation-induced cell death | Cell proliferation by [3H]thymidine incorporation (melanoma cells [3]): reduces glioblastoma, melanoma and small-cell lung carcinoma cell proliferation | Cell proliferation by [3H]thymidine incorporation [4]: reduces glioblastoma, melanoma and small-cell lung carcinoma cell proliferation | Cell proliferation (Ki67 and PCNA levels) [5]: reduces cell proliferation
